Data as given in patent US20250179033A1 (priority 2021, published 2025).
Like-named read-outs stand apart in the source and are kept apart here.

Tests used:
Kinetic solubility = format: physicochemical; details: Universal Aqueous buffer pH 7.4
Description: Kinetic Solubility: 396 μL of Universal Aqueous buffer (pH 7.4) was added to 4 μL of a 50 mM DMSO stock solution of each compound. Wells were agitated for 4 hours at 20° C. and then filtered. The compound was then diluted to serial concentrations with DMSO, followed by serial dilutions with ACN:H2O (1:1) prior to liquid chromatography-mass spectroscopy (LCMS) analysis. The calculated concentration (μM) of soluble compound was determined in reference to a standard curve.

[1] = Human liver microsome stability; format: in vitro ADME
Description: Mouse/Human liver microsome stability: A liver microsome solution (197.5 μL, 1.27 mg/ml protein concentration) (Sekisui Xenotech, Kansas City, KS) was aliquoted into 1.1 ml tubes, to which 2.5 μL of positive control and compound stock solutions (100 μM in DMSO) were added. The tubes were vortexed gently, pre-incubated for 5 min at 37° C., then 50 μL of 5 mM NADPH or LM buffer (no NADPH buffer) was added into the tubes. For analysis, an aliquot of 15 μL was removed from each tube at 0, 5, 15, 30 and 60 min (without-NADPH reaction: 0, 30 and 60 min) and quenched with 300 μL of 25 ng/ml propranolol in acetonitrile. Samples were vigorously vortexed for 1 min and then centrifuged at 4,000 rpm for 15 min at 4° C. 100 μL of supernatant from each sample was transferred to 0.65 ml tubes for LCMS analysis. The amount of parent compound was determined on the basis of the peak area ratio (compound area to IS area) for each time point. Clearance rates were calculated by the equation: […]

in vitro = in vitro ADME, mouse
Description: Protein Binding in Plasma: The donor side of dialysis inserts were filled with 200 μL plasma (human and mouse; source BioDuro, San Diego, California, United States of America) containing 5 μM drug and 0.5% of DMSO and the receiver side of the dialysis inserts was filled with 350 μL of PBS buffer (100 mM, pH 7.4). The prepared dialysis apparatus was placed in a shaker (37° C., 100 rpm) for 5 hours. Two tubes with plasma containing 5 μM experimental compound were also prepared for stability test: one tube was placed in the […] for 5 hours and the other tube was placed in shaker ([…], 100 rpm) for 5 hours. Samples were collected from the donor and receiver sides of each dialysis insert. The same volume of blank plasma was added to buffer samples and blank buffer to plasma samples to make sure all sample mixtures contain 50% plasma and 50% buffer. 50 μL of each sample was mixed with 300 μL of acetonitrile containing 25 ng/ml internal standard (propranolol). All samples were vortexed for 1 minute and then centrifuged at 4000 rpm, 4° C. for 15 min. 100 μL of the supernatant was transferred to 0.65 ml tube for LCMS analysis. The amount of compound was determined on the basis of the peak area ratio (compound area to internal standard area) for the two sides, and protein binding is determined using the following equations: % Bound=100×([Area Ratio of Donor]5h*5−[Area Ratio of Receiver]5h)/([Area Ratio of Donor]5h*5). The percentage remaining at 37° C. after 5 hours was calculated on the basis of the amount measured at 0° C. after 5 hours.

[2] = test system: HIV-1 IIIB A17 variant (Y181C/K103N); assay: HIV inhibition assay in TZM-bl cells, A17 variant; format: cell-based
In short: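 TZM-bl cells with 15 μg/mL DEAE-dextran were infected with H9-grown HIV-1 IIIB, wild-type or A17 (Y181C/K103N), in the presence of compound (0.005% or 0.05% DMSO) for 48 h at 37 °C. Luciferase RLU was read after lysis. Toxicity was measured in parallel by CellTiter-Blue fluorescence.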

[3] = biological target: T1, HIV I reverse transcriptase (Human immunodeficiency virus type 1 group M subtype B, UniProt P03366); assay: Reverse transcriptase inhibition assay (Roche kit, ELISA); format: biochemical
T1 construct: purchased Roche
Description: NNRTI assay methods: Inhibition of HIV I reverse transcriptase was assessed via a kit from Roche (Indianapolis-Marion County, Indiana, United States of America) using the manufacture's protocol (500 μM final reverse transcriptase reaction amount). […] DMSO concentrations were kept the same for all dilutions used within an assay (0.05%). Final compound concentrations ranged from 5000 nM-0.05 nM with 2-fold serial dilutions. 96-well plates were set up with 20 μL compound dilution, 20 μL reverse transcriptase, and 20 μL template/nucleotides and incubated at 37° C. 5% CO2 for 1 hr in a reaction plate. 50 μL of each reaction was then transferred to a streptavidin conjugated 96-well plate and an ELISA assay was run based on manufacture's protocol. All compounds were tested in sextuplicate, with single wells of efavirenz dilutions on each plate.

[4] = Human immunodeficiency virus 1, IIIB, TZM-bl, read-out: IC50 (TZM, A17), Table 3, TZM-bl, ± SEM, minimum 6 replicates
[5] = Human immunodeficiency virus 1, IIIB, TZM-bl, read-out: IC50 (TZM, A17), Table 4, TZM-bl

With `Nc1nc(Nc2ccc(Cl)cc2)nn1S(=O)(=O)c1ccc2ccccc2c1` [Compound 1, N3-(4-chlorophenyl)-1-(2-naphthylsulfonyl)-1,2,4-triazole-3,5-diamine] the solubility at 4 h (Kinetic solubility) was less than 0.2 µM, the “Human liver microsomes, stability in words” value [1] was “protein, stable” and the “Human liver microsomes CLint” value ([1]; human, liver microsomes, 1 μM) was 2.0 μL/min/mg protein. The “Mouse plasma protein binding” value (in vitro; 5 μM, dialysis 5 hours) was greater than 99.9%, the IC50 [2, 4] was greater than 1000 nM and the IC50 [2, 5] was greater than 1000 nM. The EC50 [3] was 4.84 µM.

In the case of `N#C/C=C/c1ccc2c(S(=O)(=O)n3nc(Nc4ccc(C#N)c(Cl)c4)nc3N)cccc2c1` [Compound 20, 4-[[5-amino-1-[[6-[2-cyanovinyl]-1-naphthyl]sulfonyl]-1,2,4-triazol-3-yl]amino]-2-chloro-benzonitrile], the solubility at 4 h (Kinetic solubility; 20 °C, kinetic from dmso stock) is reported as less than 0.2 µM, the “Human liver microsomes, stability in words” value [1] is reported as “stable” and the half-life at 1 μM ([1]; human, liver microsomes) is reported as 53.8 min. It also gave a microsomal CLint at 1 μM ([1]; human, liver microsomes) of 25.8 µL/min/mg, a half-life at 5 μM (in vitro; mouse, plasma) greater than 373 min and a fraction unbound (in vitro; mouse, plasma, pH 7.4, 5 μM, dialysis 5 hours, read-out: Mouse plasma protein binding) of less than 0.001. The “activity against the A17 variant, in words” value [2] was “retained potent activity”, the IC50 [2, 4] was 0.689 ± 0.143 nM and the IC50 [2, 5] was 45.4 nM. For the same compound, the EC50 ([2]; Human immunodeficiency virus 1, IIIB, TZM-bl, read-out: activity against the A17 double mutant (Y181C/K103N), EC50) was 1.86 nM, the EC50 [3] was 4.06 µM and the IC50 [3] was 1350 nM. The “disparity between the IC50s for in-cell (TZM-bl) and reverse transcriptase HIV I inhibition” value [3] was 1000 fold.
